Experimental data from patent publication US10633383B2, “Compounds for the treatment, alleviation or prevention of disorders associated with Tau aggregates” (AC Immune SA, priority 2018, dated 2020).

What follows are compounds tested against T1, Tau K18 fragment (amino acids 244 to 372 of human Tau441) aggregates (Homo sapiens, UniProt P10636) (assay: Tau K18 disaggregation assay by ThT). Conditions: 2 μM K18 aggregates, 30 minutes at RT, ThT fluorescence.
T1 construct: encompassing amino acids 244 to 372 of the longest isoform (2N4R) of human Tau441; host or cells: bacteria
Type: biochemical
Method: Tau K18 Disaggregation Assay by ThT
Compounds were dissolved in anhydrous dimethyl sulfoxide (DMSO, Sigma-Aldrich) to reach a concentration of 10 mM. K18 aggregates and serial dilutions of compounds were mixed together in PBS (volume 50 μL) to a final concentration of 2 μM of K18 aggregates and from 160 to 0.04 μM of compounds. The mixture was incubated for 30 minutes at room temperature (RT), then 40 μL of this mixture were transferred into a black 384-well plate assay (Perkin-Elmer) and mixed with 10 μL of 100 μM ThT in 250 mM glycine (both from Sigma-Aldrich) in PBS. Fluorescence (relative fluorescence units; RFU) was measured in monoplicate or duplicate on a Tecan reader (excitation: 440 nm; emission: 485 nm). Percentage of K18 disaggregation was then calculated and half maximal effective concentration (EC50) was determined using GraphPad Prism version 5 (GraphPad Software) assuming a one-binding site fitting model.

T1 sequence (P10636 561-689): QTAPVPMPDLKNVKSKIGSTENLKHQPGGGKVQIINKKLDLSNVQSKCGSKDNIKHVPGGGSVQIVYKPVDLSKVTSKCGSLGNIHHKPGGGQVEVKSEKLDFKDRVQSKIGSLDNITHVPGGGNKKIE

EC50 [µM]	SMILES
10 to 25	COc1ccc(N2CCc3[nH]c4cc(F)ccc4c3C2)nc1 [Example 141]
< 10	COc1ccnc(N2CCc3[nH]c4cc(F)ccc4c3C2)c1 [Example 140]
< 10	C[C@H]1CN(c2nc3cc(N4CCc5[nH]c6cc(F)ccc6c5C4)ccc3o2)CCO1 [Example 128]
< 10	Cc1cccc2c3c([nH]c12)CCN(c1ccc2oc(N4CCOCC4)nc2c1)C3 [Example 137]
< 10	COc1cccc2c3c([nH]c12)CCN(c1ccc2oc(N4CCOCC4)nc2c1)C3 [Example 127]
< 10	COc1ccc(N2CCc3c(c4cc(F)ccc4n3C)C2)cc1 [Example 148]
< 10	Fc1ccc2[nH]c3c(c2c1)CN(c1cccc2oc(N4CCOCC4)nc12)CC3 [Example 124]
< 10	CCn1c2c(c3ccc(F)cc31)CN(c1ccc3oc(N4CCOCC4)nc3c1)CC2 [Example 146, 5-(5-ethyl-7-fluoro-3,4-dihydro-1H-pyrido[4,3-b]indol-2-yl)-2-morpholino-1,3-benzoxazole]
< 10	Cn1c2c(c3cc(F)ccc31)CN(c1ccc(OCCO)cc1)CC2 [Example 149]
10 to 25	CC(C)Oc1cc(N2CCc3[nH]c4cc(F)ccc4c3C2)ccn1 [Example 139]
< 10	C[C@@H]1COCCN1c1nc2cc(N3CCc4[nH]c5cc(F)ccc5c4C3)ccc2o1 [Example 126]
< 10	Fc1ccc2c3c([nH]c2c1)CCN(c1ccc2cc(N4CCOCC4)ncc2c1)C3 [Example 122]
< 10	Cn1c2c(c3ccccc31)CN(c1ccc(N3CCOCC3)nc1)CC2 [Example 119]
10 to 25	COCCNc1nc2cc(N3CCc4[nH]c5cc(F)ccc5c4C3)ccc2o1 [Example 118]
< 10	Cn1c2c(c3cc(F)ccc31)CN(c1ccc3cc(O)ccc3n1)CC2 [Example 150]
< 10	COc1ccc2c3c([nH]c2c1)CCN(c1ccc2oc(N4CCOCC4)nc2c1)C3 [Example 133]
< 10	COc1cc(N2CCc3[nH]c4cc(F)ccc4c3C2)ccn1 [Example 132]
< 10	C[C@H]1COCCN1c1nc2cc(N3CCc4[nH]c5cc(F)ccc5c4C3)ccc2o1 [Example 129]
10 to 25	Fc1ccc2[nH]c3c(c2c1)CN(c1ccc2ccc(N4CCOCC4)nc2c1)CC3 [Example 114]
< 10	Fc1ccc2c3c([nH]c2c1)CCN(c1ccc(N2CCOCC2)cc1)C3 [Example 117]
< 10	Fc1ccc2c3c([nH]c2c1)CCN(c1ccc2oc(N4CCOC5(CCC5)C4)nc2c1)C3 [Example 125]
< 10	C[C@@H]1CN(c2nc3cc(N4CCc5[nH]c6cc(F)ccc6c5C4)ccc3o2)C[C@H](C)O1 [Example 142]
< 10	N#Cc1ccc(N2CCc3[nH]c4cc(F)ccc4c3C2)nc1 [Example 121]
10 to 25	CCOc1ccc2[nH]c3c(c2c1)CN(c1ccc2oc(N4CCOCC4)nc2c1)CC3 [Example 136]

More lines, now with the values behind:

SMILES	EC50 [µM]
CN(C)c1nc2cc(N3CCc4[nH]c5ccc(F)cc5c4C3)ccc2o1 [Example 10]	< 10
Fc1ccc2c3c([nH]c2c1)CCN(c1nc2ccc(N4CCOCC4)cc2s1)C3 [Example 108]	< 10
CN(C)c1nc2ccc(N3CCc4[nH]c5ccc(F)cc5c4C3)cc2s1 [Example 7]	< 10
CNc1nc2ccc(N3CCc4c(c5cc(OC)ccc5n4C)C3)cc2s1 [Example 41]	< 10
COc1cc(N2CCc3c(c4cc(F)ccc4n3C)C2)ccn1 [Example 95]	< 10
CN(C)c1nc2cc(N3CCc4[nH]c5ccc(F)cc5c4C3)ccc2s1 [Example 11]	< 10
Fc1ccc2[nH]c3c(c2c1)CN(c1ccc2nc(N4CCOCC4)ccc2c1)CC3 [Example 113]	< 10
Fc1ccc2[nH]c3c(c2c1)CN(c1cnc(N2C4CCC2COC4)cn1)CC3 [Example 105]	< 10
Fc1ccc2[nH]c3c(c2c1)CN(c1cnc2nc(N4CCOCC4)sc2c1)CC3 [Example 71]	< 10
CNc1nc2ccc(N3CCc4[nH]c5ccc(F)cc5c4C3)cc2o1 [Example 98]	< 10
Fc1cccc2c3c([nH]c12)CCN(c1ccc2oc(N4CCOCC4)nc2c1)C3 [Example 111]	< 10
Fc1ccc2c3c([nH]c2c1)CCN(c1cc2sc(N4CCOCC4)nc2cn1)C3 [Example 89, 4-(6-(7-fluoro-1,3,4,5-tetrahydro-2H-pyrido[4,3-b]indol-2-yl)thiazolo[4,5-c]pyridin-2-yl)morpholine]	< 10
Fc1ccc2[nH]c3c(c2c1)CN(c1cnc2nc(N4CCOCC4)ccc2c1)CC3 [Example 112]	< 10
Fc1ccc2[nH]c3c(c2c1)CN(c1ccc2nc(N4CCOCC4)ccc2n1)CC3 [Example 105a]	< 10
Fc1ccc2c3c([nH]c2c1)CCN(c1ccc2nc(N4CCOCC4)sc2n1)C3 [Example 88]	< 10
Fc1ccc2c3c([nH]c2c1)CCN(c1nc2cc(N4CCOCC4)ccc2s1)C3 [Example 107]	< 10
Fc1ccc2c3c([nH]c2c1)CCN(c1nc2ccc(N4CCOCC4)cc2o1)C3 [Example 109]	< 10
Fc1ccc2[nH]c3c(c2c1)CN(c1ccc(N2CCOCC2)nn1)CC3 [Example 97]	< 10
Fc1ccc2[nH]c3c(c2c1)CN(c1ccc(N2CCOCC2)cn1)CC3 [Example 76]	< 10

SMILES	EC50 [µM]
c1ccc2c3c([nH]c2c1)CCN(c1ccc(N2CCOCC2)cn1)C3 [Example 85]	< 10
CN(C)c1nc2cc(N3CCc4c(c5cc(F)cnc5n4C)C3)ccc2o1 [Example 38]	< 10
Cn1c2c(c3ccc(F)cc31)CN(c1ccc(N3CCOCC3)nc1)CC2 [Example 87]	< 10
Fc1ccc2c3c([nH]c2c1)CCN(c1ccc2nc(N4CCOCC4)ccc2n1)C3 [Example 105b]	< 10
Fc1ccc2[nH]c3c(c2c1)CN(c1ccnc(N2CCOCC2)n1)CC3 [Example 99]	25 to 50
Fc1ccc2c3c([nH]c2c1)CCN(c1cnc2nc(N4CCOCC4)sc2c1)C3 [Example 73]	< 10
COc1ccc2nc(N3CCc4c(c5cc(F)ccc5n4C)C3)ccc2c1 [Example 93]	< 10
Fc1ccc2[nH]c3c(c2c1)CN(c1cnc(N2CCOCC2)cn1)CC3 [Example 100]	25 to 50
c1cnc2oc3c(c2c1)CN(c1ccc2oc(N4CCOCC4)nc2c1)CC3 [Example 96b]	< 10
Fc1ccc2c3c([nH]c2c1)CCN(c1ccc(N2CC4CCC(C2)O4)nn1)C3 [Example 102]	25 to 50
Cn1c2c(c3cc(F)ccc31)CN(c1cncc(C(F)(F)F)c1)CC2 [Example 96d]	< 10
Fc1ccc2c3c([nH]c2c1)CCN(c1nc2cc(N4CCOCC4)ccc2o1)C3 [Example 106]	< 10
Fc1ccc2c3c([nH]c2c1)CCN(c1ccc(N2CCOCC2)nc1)C3 [Example 79]	< 10
Cn1c2c(c3ccccc31)CN(c1ccc(N3CCOCC3)cn1)CC2 [Example 84]	< 10
Cn1c2c(c3cc(F)ccc31)CN(c1ccc3nc(N4CCOCC4)sc3c1)CC2 [Example 1]	< 10
Cn1c2c(c3cc(F)ccc31)CN(c1ccc3nc(N4CCOCC4)oc3c1)CC2 [Example 15]	25 to 50
Fc1ccc2[nH]c3c(c2c1)CN(c1ncc2nc(N4CCOCC4)sc2n1)CC3 [Example 104]	< 10
Fc1ccc2c3c([nH]c2c1)CCN(c1cc2ccc(N4CCOCC4)nc2cn1)C3 [Example 110]	< 10
